Measured values reported in PubChem BioAssay (NCI).
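Assay format: 96-well plates, 48-hour exposure. GI50 = concentration required for 50% inhibition of growth. TGI: total growth inhibition.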

Columns and labels:
Assay in all cases: NCI tumour cell line growth inhibition, 48 h
OVCAR-5 ovarian = test system: OVCAR-5 ovarian
TK-10 renal = test system: TK-10 renal
MALME-3M melanoma = test system: MALME-3M melanoma
786-0 renal = test system: 786-0 renal
HL-60(TB) leukemia = test system: HL-60(TB) leukemia
EKVX NSCLC = test system: EKVX NSCLC
SF-539 CNS = test system: SF-539 CNS
SK-MEL-5 melanoma = test system: SK-MEL-5 melanoma
NCI-H226 lung = test system: NCI-H226 lung
OVCAR-4 ovarian = test system: OVCAR-4 ovarian

SMILES | TGI (OVCAR-5 ovarian) [µM] | TGI (TK-10 renal) [µM] | TGI (MALME-3M melanoma) [µM] | TGI (786-0 renal) [µM] | TGI (HL-60(TB) leukemia) [µM] | TGI (EKVX NSCLC) [µM] | TGI (SF-539 CNS) [µM] | TGI (SK-MEL-5 melanoma) [µM] | TGI (NCI-H226 lung) [µM] | TGI (OVCAR-4 ovarian) [µM] | GI50 (OVCAR-5 ovarian) [µM] | GI50 (TK-10 renal) [µM] | GI50 (MALME-3M melanoma) [µM] | GI50 (786-0 renal) [µM] | GI50 (HL-60(TB) leukemia) [µM] | GI50 (EKVX NSCLC) [µM] | GI50 (SF-539 CNS) [µM] | GI50 (SK-MEL-5 melanoma) [µM] | GI50 (NCI-H226 lung) [µM] | GI50 (OVCAR-4 ovarian) [µM]
CC(C)(C)[Si](C)(C)OCC1CCC(n2cnc3c(=O)[nH]cnc32)O1 (stereo not given) | > 100 | > 100 | > 100 | > 100 | > 100 | > 100 | > 100 | > 100 | > 100 | > 100 | – | – | – | – | – | – | – | – | – | –
COc1ccc(CN2C(=O)C(Cc3cc(OC)c(OC)c(C)c3OC)NC(=O)/C2=C/c2cc(OC)c(OC)c(C)c2OC)cc1 (stereo not given) | > 100 | 83.1 | 67.8 | > 100 | 45.8 | > 100 | > 100 | 34.5 | 60.2 | 82.5 | – | – | – | – | – | – | – | – | – | –
CCNC(C)(C)C(SS)c1ccc(Br)cc1 (stereo not given) | > 100 | > 100 | > 100 | 49.6 | 53 | > 100 | > 100 | > 100 | > 100 | > 100 | – | – | – | – | – | – | – | – | – | –
O=C(c1ccccc1)C(c1ccccc1)C1(O)C(=O)Nc2ccccc21 (stereo not given) | > 100 | > 100 | > 100 | > 100 | > 100 | > 100 | > 100 | > 100 | > 100 | > 100 | – | – | – | – | – | – | – | – | – | –
COc1ccc(C[n+]2c3ccccc3n3c4ccc(N)cc4ccc32)c(OC)c1OC | 78.5 | 79.4 | 7.48 | > 100 | 11.7 | 58.9 | 15.2 | 7.27 | 60.8 | 31.9 | 12.1 | 22.4 | 2.08 | 34.9 | 3.09 | 3.08 | 2.89 | 1.44 | 12.8 | 2.27
Cc1c(C)c2c(c(C)c1NC(=O)/C=C\C(=O)O)CCC(C)(CCCC(C)CCCC(C)CCCC(C)C)O2 (stereo not given) | 4.05 | 3.39 | 3.16 | 3.06 | 6.82 | 3.37 | 3.11 | 3.15 | 4.38 | 5.16 | 1.72 | 1.84 | 1.7 | 1.69 | 1.38 | 1.57 | 1.68 | 1.73 | 1.96 | 2.52
CC(C)N(C(=O)C12C3C4C5C3C1(C(=O)N(C(C)C)C(C)C)C5(C#N)C42)C(C)C (stereo not given) | > 100 | > 100 | > 100 | > 100 | 39.4 | > 100 | > 100 | > 100 | > 100 | > 100 | – | – | – | – | – | – | – | – | – | –
Cc1oc2nc[nH]c(=O)c2c1C(=O)/C=C/c1ccc(Cl)cc1 | 12 | 13.6 | 8.29 | 10.3 | 7.78 | 15.9 | 6.71 | 5.85 | 7.36 | 16.1 | 3.17 | 5.09 | 2.13 | 3.02 | 2.64 | 2.37 | 2.37 | 2.25 | 1.96 | 4.43
CC(C)(C)N/N=C(\Cc1occc(=O)c1O)C(=O)Nc1ccc([N+](=O)[O-])cc1[N+](=O)[O-] | > 100 | > 100 | > 100 | > 100 | > 100 | > 100 | > 100 | > 100 | > 100 | > 100 | – | – | – | – | – | – | – | – | – | –
CC(=O)OCCOCNC(=S)N/N=C/c1ccc2ccccc2n1 | 65.5 | > 100 | > 100 | > 100 | > 100 | > 100 | > 100 | 60.8 | > 100 | > 100 | – | – | – | – | – | – | – | – | – | –
Nc1ncnc2c1ncn2C1OC(CSC(F)(F)F)C(O)C1O (stereo not given) | > 100 | > 100 | > 100 | > 100 | > 100 | > 100 | > 100 | > 100 | > 100 | > 100 | – | – | – | – | – | – | – | – | – | –
N#CC(C#N)=Cc1c(-c2ccccc2)[nH]c2ccccc12 | > 100 | > 75.1 | > 100 | > 64.1 | > 20.2 | > 86.4 | 9.12 | 12.8 | > 41.4 | > 100 | 19.6 | 5.23 | 15.8 | 8.55 | 1.62 | 5.81 | 2.1 | 1.08 | 3.84 | 5.22
COc1cc2c(c(OC)c1OC)C(=O)CC(c1cccc(NC(=O)c3ccc(Br)cc3)c1)O2 (stereo not given) | > 100 | > 100 | 7.39 | > 100 | 4.14 | > 100 | > 100 | 3.32 | > 100 | > 100 | > 100 | 4.44 | 1.47 | 2.97 | 1.58 | 2.5 | 3.86 | 1.62 | 3 | 1.6
C=C1C(=O)O[C@H]2[C@H]1CC/C(Cn1cc(CNCCc3c[nH]c4ccc(Cl)cc34)nn1)=C\CC[C@@]1(C)O[C@@H]21 | 26.7 | 7 | 6.61 | 10.2 | 3.46 | 37.4 | 14.6 | 34.9 | > 100 | 19.7 | 11.5 | 2.29 | 2.4 | 2.89 | 1.12 | 15.5 | 4.23 | 17 | 31.3 | 5.23
CCOC(=O)c1cc(/C=C/C(C)=C/C(=O)OC)oc1-c1ccccc1 | > 100 | > 100 | > 100 | > 100 | > 100 | > 100 | > 100 | > 100 | > 100 | > 100 | – | – | – | – | – | – | – | – | – | –
COc1cc(/C=N/Nc2ncnc3c2cnn3C(C)C)ccc1O | > 25 | 21.3 | > 25 | > 25 | 11.9 | > 25 | 15.2 | > 25 | > 25 | > 25 | 8.83 | 8.3 | 15 | 10.8 | 4.07 | 11.6 | 4.76 | 8.1 | 9.27 | 14.4
